Laboratory results taken from ChEMBL document CHEMBL1155591, “New anabaenopeptins, potent carboxypeptidase-A inhibitors from the cyanobacterium Aphanizomenon flos-aquae” (J Nat Prod, 2000).
Active and inactive are the calls of the source. The rule behind the calls is not given here. Starred links: 1 amine or outer side, 2 acyl side, 3 side chain; linkers in the order of their positions; H or OH if unused. Positions of bridges follow the written chain, without caps; N, C: chain ends. Non-standard residues stand in square brackets, D forms with d. Residues, ends and D or L forms follow the SMILES beside them. NMehTyr = CN[C@@H](CCc1ccc(O)cc1)C(=O)O; hTyr = N[C@@H](CCc1ccc(O)cc1)C(=O)O; NMeA = CN[C@@H](C)C(=O)O; CO = O=C([*:1])[*:2]

Biological target: T1, Carboxypeptidase A1 (Homo sapiens, UniProt P15085)
T1 sequence (P15085 whole entry): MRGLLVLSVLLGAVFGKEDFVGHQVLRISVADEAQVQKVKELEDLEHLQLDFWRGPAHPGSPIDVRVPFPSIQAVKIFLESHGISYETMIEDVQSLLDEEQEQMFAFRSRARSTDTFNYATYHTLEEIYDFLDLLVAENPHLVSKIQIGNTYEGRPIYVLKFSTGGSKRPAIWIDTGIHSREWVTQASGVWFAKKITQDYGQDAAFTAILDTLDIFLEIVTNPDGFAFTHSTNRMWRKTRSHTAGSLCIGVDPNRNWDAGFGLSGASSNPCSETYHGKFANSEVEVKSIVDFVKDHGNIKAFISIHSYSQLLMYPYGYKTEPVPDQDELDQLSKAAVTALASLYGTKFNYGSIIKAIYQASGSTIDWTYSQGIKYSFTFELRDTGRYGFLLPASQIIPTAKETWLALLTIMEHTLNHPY
Assay: Inhibition of carboxypeptidase A

Row | SMILES | IC50
1 | CC[C@H](C)[C@@H]1NC(=O)[C@H](NC(=O)N[C@@H](Cc2ccc(O)cc2)C(=O)O)CCCCNC(=O)[C@H]([C@@H](C)CC)NC(=O)[C@H](CCc2ccc(O)cc2)N(C)C(=O)[C@H](CCc2ccc(O)cc2)NC1=O [ANABAENOPEPTIN G] ({Tyr-CO}-[dK]I[hTyr][NMehTyr]I; lactam 1-C) | 7.53 nM
2 | CC[C@H](C)[C@H](NC(=O)N[C@@H]1CCCCNC(=O)[C@H](CC(C)C)NC(=O)[C@H](C)N(C)C(=O)[C@H](CCc2ccc(O)cc2)NC(=O)[C@H](C(C)C)NC1=O)C(=O)O [ANABAENOPEPTIN I] ({Ile-CO}-[dK]V[hTyr][NMeA]L; lactam 1-C) | 6.84 nM
3 | CC[C@H](C)[C@@H]1NC(=O)[C@H](NC(=O)N[C@@H](CCCNC(=N)N)C(=O)O)CCCCNC(=O)[C@H]([C@@H](C)CC)NC(=O)[C@H](CCc2ccc(O)cc2)N(C)C(=O)[C@H](CCc2ccc(O)cc2)NC1=O [ANABAENOPEPTIN H] ({Arg-CO}-[dK]I[hTyr][NMehTyr]I; lactam 1-C) | 3680 nM
4 | CC[C@H](C)[C@H](NC(=O)N[C@@H]1CCCCNC(=O)[C@H]([C@@H](C)CC)NC(=O)[C@H](CCc2ccc(O)cc2)N(C)C(=O)[C@H](CCc2ccc(O)cc2)NC(=O)[C@H](C(C)C)NC1=O)C(=O)O [ANABAENOPEPTIN T] ({Ile-CO}-[dK]V[hTyr][NMehTyr]I; lactam 1-C) | 25.4 nM
5 | CC[C@H](C)[C@H](NC(=O)N[C@@H]1CCCCNC(=O)[C@H](Cc2ccccc2)NC(=O)[C@H](C)N(C)C(=O)[C@H](CCc2ccc(O)cc2)NC(=O)[C@H](C(C)C)NC1=O)C(=O)O [ANABAENOPEPTIN J] ({Ile-CO}-[dK]V[hTyr][NMeA]F; lactam 1-C) | 9.57 nM

Biological target: T2, Carboxypeptidase A1 (Homo sapiens) (UniProt P15085)
T2 sequence (whole entry): T1 sequence (P15085 whole entry)
Assay: Inhibition of carboxypeptidase A at 10 ug/ml

Row | Activity | SMILES
6 | inactive | CC(C)[C@@H]1NC(=O)[C@H](NC(=O)N[C@@H](CCCNC(=N)N)C(=O)O)CCCCNC(=O)[C@H](Cc2ccccc2)NC(=O)[C@H](C)N(C)C(=O)[C@H](CCc2ccc(O)cc2)N(C)C1=O
7 | inactive | CC[C@H](C)[C@@H]1NC(=O)[C@H](NC(=O)N[C@@H](CCCNC(=N)N)C(=O)O)CCCCNC(=O)[C@H](Cc2ccccc2)NC(=O)[C@H](C)N(C)C(=O)[C@H](CCc2ccc(O)cc2)NC1=O ({Arg-CO}-[dK]I[hTyr][NMeA]F; lactam 1-C)
8 | inactive | CC(C)[C@@H]1NC(=O)[C@H](NC(=O)N[C@@H](CCCNC(=N)N)C(=O)O)CCCCNC(=O)[C@H](Cc2ccccc2)NC(=O)[C@H](C)N(C)C(=O)[C@H](CCc2ccc(O)cc2)NC1=O ({Arg-CO}-[dK]V[hTyr][NMeA]F; lactam 1-C)
